Consider two molecules from paper PMC8453936, “Development and in vitro Profiling of Dual FXR/LTA4H Modulators” (Chemmedchem, 2021).

Data set [1] has as its target T1, recombinant human LTA4H (Homo sapiens, UniProt P09960).
T1 sequence (P09960 1-611): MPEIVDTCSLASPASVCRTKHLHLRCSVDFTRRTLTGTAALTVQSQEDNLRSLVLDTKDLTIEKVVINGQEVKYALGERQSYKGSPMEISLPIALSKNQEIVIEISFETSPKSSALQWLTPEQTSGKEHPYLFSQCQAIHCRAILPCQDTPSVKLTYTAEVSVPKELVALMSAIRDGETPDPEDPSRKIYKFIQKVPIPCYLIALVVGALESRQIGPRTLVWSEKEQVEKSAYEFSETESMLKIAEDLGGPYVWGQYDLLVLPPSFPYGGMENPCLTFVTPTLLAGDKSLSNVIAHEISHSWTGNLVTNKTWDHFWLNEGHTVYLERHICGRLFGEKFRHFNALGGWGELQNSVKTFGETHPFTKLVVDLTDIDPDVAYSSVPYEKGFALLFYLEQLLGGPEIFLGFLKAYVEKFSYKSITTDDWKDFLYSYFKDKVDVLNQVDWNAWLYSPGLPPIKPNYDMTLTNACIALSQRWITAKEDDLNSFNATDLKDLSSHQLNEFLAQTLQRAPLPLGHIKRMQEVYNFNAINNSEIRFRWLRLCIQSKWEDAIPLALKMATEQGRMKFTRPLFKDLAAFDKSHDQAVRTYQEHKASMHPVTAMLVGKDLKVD
As to conditions: for LTA4H max. inhib.: LTA4H inhibition at the highest tested concentration (up to 100 μM), mean±S.E.M., n=3.
Text: FXR modulation by 3–20 was characterized in a cellular (HeLa, transiently transfected) full‐length FXR reporter gene assay employing the human FXR response element from the promoter region of bile salt export protein (BSEP) to govern firefly luciferase expression as reporter gene.[26, 27] FXR and its natural heterodimer partner retinoid X receptor (RXR) were constitutively over‐expressed and a constitutively expressed renilla luciferase was present as internal control for transfection efficiency and cellular health.
LTA4H assay. […] The assay was performed in black polystyrol 96‐well plates in a final volume of 100 μL. Test compound solution in DMSO (1 μL) or DMSO alone as control were incubated with 89 μl protein mixture (containing LTA4H, buffer and Triton‐X‐100). After 30 min, 10 μl of substrate mixture (containing L‐arginin‐7‐amido‐4‐methylcumarine and DMSO in buffer) were added. […] A blank measurement containing no protein was performed and treated as 0 % conversion control. All samples were measured in triplicates and each experiment was conducted in three independent repeats.

Data set [2] has as its target T1, recombinant human LTA4H. Kind of data set: Isothermal titration calorimetry on LTA4H. Conditions: ITC, 25 °C, 1:1 binding assumed. On the set-up: His-tag (inferred from IMAC on HisTrap); made in house; host or cells: E. coli BL21(DE3)RIPL-Codon Plus.
Data set [3] has as its system related nuclear receptors (RAR, PPAR, LXR, VDR, CAR, RXR). Kind of data set: Gal4 hybrid reporter gene assays, selectivity over related nuclear receptors (HEK293T). Type of data set: cell-based, human. As to conditions: heatmap of mean relative activation, n=2. From the text:
Isothermal titration calorimetry (ITC) confirmed binding of 8 and 19 to the recombinant proteins of both FXR LBD and LTA4H (Figure 1).
Figure 2 (a) Selectivity profiles of 8 and 19 over related nuclear receptors. […] (b) Activity of 8 and 19 in a WST‐1 cell viability assay in HepG2 cells. Data are mean±S.E.M., n=4. […] Data are mean±S.E.M. relative FXR activation (%), n≥3. […] Data are mean±S.E.M. relative LTA4H inhibition (%), n=3.
Hybrid reporter gene assays. Nuclear receptor modulation was determined in hybrid reporter gene assays using the Gal4‐fusion receptor plasmids pFA‐CMV‐hPPARα‐LBD,[39] pFA‐CMV‐hPPARγLBD,[39] pFA‐CMV‐hPPARδ‐LBD,[39] pFA‐CMV‐hLXRα‐LBD,[40] pFACMV‐hLXRβ‐LBD,[40] pFA‐CMV‐hRXRα‐LBD,[41] pFA‐CMV‐hRARα‐LBD,[41] pFA‐CMV‐hVDR‐LBD[41] and pFA‐CMV‐hCAR‐LBD[41] coding for the hinge region and ligand binding domain (LBD) of the canonical isoform of the respective nuclear receptor, pFR‐Luc (Stratagene) as reporter plasmid and pRL‐SV40 (Promega) for normalization of transfection eﬃciency. HEK293T cells were grown in DMEM high glucose, supplemented with 10 % FCS, sodium pyruvate (1 mM), penicillin (100 U/mL), and streptomycin (100 μg/mL) at 37 °C and 5 % CO2, and seeded in 96‐well plates (2.5 ⋅ 10^4 cells/well) the day before transfection. […] Luminescence was measured with an Infinite M200 luminometer (Tecan Deutschland GmbH, Germany). […]

The test system of another data set is HepG2 cells. Put plainly: WST-1 cell viability assay. Conditions: up to 100 μM, 48 h. Type of data set: cell-based.
Data set [4] addresses T2, recombinant human FXR LBD (Homo sapiens, UniProt Q96RI1).
T2 construct: Recombinant FXR LBD for ITC experiments was obtained; His6-tag (TEV-cleavable) (cleaved yes); made in house; host or cells: E. coli BL21 (DE3)
T2 sequence (Q96RI1 262-486 limits assumed): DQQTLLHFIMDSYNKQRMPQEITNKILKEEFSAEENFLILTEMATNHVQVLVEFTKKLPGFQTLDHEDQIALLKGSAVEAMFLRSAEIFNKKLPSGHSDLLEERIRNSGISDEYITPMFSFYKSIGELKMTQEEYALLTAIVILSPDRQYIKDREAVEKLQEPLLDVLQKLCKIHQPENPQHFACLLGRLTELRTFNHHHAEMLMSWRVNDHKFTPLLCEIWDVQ
Kind of data set: Isothermal titration calorimetry on FXR LBD. As to conditions: ITC, 25 °C, 1:1 binding assumed.

For the molecule `O=C(O)c1cccc(NC(=O)c2ccc(OCCCc3ccccc3)cc2)c1` [compound 8], the IC50 on recombinant human LTA4H [1] came out at 140 ± 10 nM. Moreover, the LTA4H max. inhib. on recombinant human LTA4H [1] stood at 98.8±0.1%. The values for the Kd (at recombinant human LTA4H [2]; in data set [4]) were around 300 nM and around 7 µM, respectively. Moreover, the “selectivity over related nuclear receptors” value in data set [3] is reported as “favorable selectivity”. The “cytotoxic / anti-proliferative effect in WST-1 assay” value in the data set with HepG2 cells is recorded as “slight anti‐proliferative activity at high concentration”.

`O=C(O)c1ccnc(NC(=O)c2ccc(OCCCc3ccccc3)cc2)c1` [compound 19, 2‐(4‐(3‐Phenylpropoxy)benzamido)isonicotinic acid]: on recombinant human LTA4H [1], the IC50 was determined as 450 ± 20 nM and the LTA4H max. inhib. worked out at 98.9±0.1%. The Kd on recombinant human LTA4H [2] is around 700 nM. For the same molecule, the “selectivity over related nuclear receptors” value in data set [3] is “favorable selectivity”. Further, the “cytotoxic / anti-proliferative effect in WST-1 assay” value with HepG2 cells was “no cytotoxic effects”. The Kd in data set [4] is around 3 µM.
